Where two headings read alike, the source gives them in different places.
What was measured:
[1] = target: Na^+ Channel Site 2; test: In vitro radioligand binding assay, Na+ channel site 2
[2] = target: T1, M5 (Homo sapiens, UniProt P08912); test: In vitro radioligand binding assay, M5
T1 sequence (P08912 1-532): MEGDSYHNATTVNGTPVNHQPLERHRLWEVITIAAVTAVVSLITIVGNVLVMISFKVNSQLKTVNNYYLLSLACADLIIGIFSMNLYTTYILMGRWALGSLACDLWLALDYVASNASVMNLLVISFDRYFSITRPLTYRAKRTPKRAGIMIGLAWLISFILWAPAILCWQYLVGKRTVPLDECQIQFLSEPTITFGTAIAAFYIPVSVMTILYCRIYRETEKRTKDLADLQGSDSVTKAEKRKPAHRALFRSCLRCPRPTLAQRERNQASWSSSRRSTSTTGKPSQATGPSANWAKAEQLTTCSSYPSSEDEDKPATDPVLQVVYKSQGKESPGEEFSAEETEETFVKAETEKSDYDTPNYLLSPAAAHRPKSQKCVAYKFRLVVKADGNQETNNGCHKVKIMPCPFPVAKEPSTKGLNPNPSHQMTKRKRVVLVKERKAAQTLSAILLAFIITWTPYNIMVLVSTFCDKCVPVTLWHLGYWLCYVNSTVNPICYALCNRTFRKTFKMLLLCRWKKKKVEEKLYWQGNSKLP

[3] = target: Ca^2+ Channel Verapamil Site; test: In vitro radioligand binding assay, Ca2+ channel verapamil site
[4] = target: H2 (Homo sapiens, UniProt P25021); test: In vitro radioligand binding assay, H2
[5] = target: T2, recombinant human Norepinephrine (NE) transporter (Homo sapiens, UniProt P23975); test: Functional uptake of NE into cells expressing recombinant human transporters; assay type: cell-based; conditions: read-out: IC50 inhibition of functional uptake in human transporters, Norepinephrine (NE)
T2 construct: expressed in transfected cells

[6] = target: T3, recombinant human Dopamine (DA) transporter (Homo sapiens, UniProt Q01959); test: Functional uptake of DA into cells expressing recombinant human transporters; assay type: cell-based; conditions: read-out: IC50 inhibition of functional uptake in human transporters, Dopamine (DA)
T3 construct: expressed in transfected cells

[7] = target: T4, Norepinephrine (NE) uptake (Rattus norvegicus, UniProt Q63380); test: Functional uptake of radiolabeled NE into synaptosomes from rat hypothalamus; assay type: biochemical
T4 construct: from tissue; host or cells: synaptosomes from rat hypothalamus
Method: The 5-HT and NE assays were performed essentially as outlined in Perovic S. & Müller W. E. G., Arzneim.-Forsch.

[8] = target: Dopamine (DA) uptake (Rattus norvegicus, UniProt P23977); test: biochemical
[9] = target: 5-HT1B (Homo sapiens, UniProt P28222); test: In vitro radioligand binding assay, 5-HT1B
[10] = system: Rat SNL Model; test: SNL model of neuropathic pain, mechanical allodynia testing; assay type: in vivo
Method: (§1) The animals were anesthetized with isoflurane, the left L5 transverse process was removed, and the L5 and L6 spinal nerves were tightly ligated with 6-0 silk suture. The wound was then closed with internal sutures and external staples. Wound clips were removed 10-11 days following surgery.
Animals were placed on a perforated metallic platform and allowed to acclimate to their surroundings for a minimum of 30 minutes before testing. The mean and standard error of the mean (SEM) were determined for each animal in each treatment group. Since this stimulus is normally not considered painful, significant injury-induced increases in responsiveness in this test are interpreted as a measure of mechanical allodynia. Mechanical allodynia was evaluated 14 days post-surgery.
(§2) Ten rats were studied per group and the tests were performed blind. (1R,4S)-4-(3,4-dichlorophenyl)-1,2,3,4-tetrahydro-1-naphthalenamine (P) was evaluated at 3 doses (5, 10 and 15 mg/kg), administered orally and compared with a vehicle control group. Gabapentin (100 mg/kg) and duloxetine (30 mg/kg) administered orally under the same experimental conditions, were used as comparator substances. Mechanical allodynia and hyperalgesia testing were conducted at baseline and 1, 2 and 4 hours after test article administration.

[11] = system: rats; test: Formalin paw test in the rat (late phase), flinches counted; assay type: in vivo
Method: Rats were given an intraplantar injection of 5% formalin (50 μl) into the posterior left paw. […] The number of flinches was counted for 15 minutes, beginning 20 minutes after injection of formalin. Eight rats were studied per group. The test was performed blind. […] Data were analyzed by comparing treated groups with vehicle control using unpaired Mann-Whitney U tests.

[12] = system: Rat SNL Model; test: SNL model of neuropathic pain, mechanical hyperalgesia testing; assay type: in vivo
Method: as §1
Mechanical hyperalgesia testing: Baseline, post-injury and post-treatment values for […] mechanical sensitivity were evaluated using a Paw Pressure Analgesymeter (7200, Ugo Basile, Comerio, Italy) which generates a linearly increasing mechanical force. The mechanical nociceptive stimulus was applied to the plantar surface of the hind paws by a dome-shaped plastic tip placed between the 3rd and 4th metatarsus. […] Mechanical thresholds were defined as the force in grams at the first pain behavior, which includes paw withdrawal, struggle and/or vocalization. Paw pressure test was performed on each hind paw for each animal. The mean and standard error of the mean (SEM) were determined for each paw, in each treatment group. Mechanical hyperalgesia was evaluated 24 days post-surgery.
as §2

[13] = system: rats; test: Formalin test, second test with Automated Nociception Analyzer; assay type: in vivo, rat; conditions: automated detection; for Number of Flinches, Acute Phase (Mean ± SEM): 0-10 minutes after formalin; for Number of Flinches, Late Phase (Mean ± SEM): 10-60 minutes after formalin
Method: In a second test, flinching behaviors were measured for 90 minutes after formalin injection using an automated detection system. […] This device used a magnetic detection system to measure paw movements, called “flinches”. Small metal bands were attached to the left hind paw of rats just before placement into individual circular test chambers 30 minutes prior to formalin injection. […] In addition to duloxetine, morphine (6 mg/kg, subcutaneously) was used as a comparator substance. Animals were treated with morphine 30 minutes prior to the formalin injection. To initiate the experiment, the rats were injected with formalin subcutaneously on the dorsal surface of the left hind paw and placed in the test chambers. The instrument subsequently recorded rapid foot movements counted in one minute epochs.

[14] = target: B2 (Homo sapiens, UniProt P30411); test: In vitro radioligand binding assay, B2
[15] = target: T5, 5-HT1A (Homo sapiens, UniProt P08908); test: In vitro radioligand binding assay, 5-HT1A
T5 sequence (P08908 1-422): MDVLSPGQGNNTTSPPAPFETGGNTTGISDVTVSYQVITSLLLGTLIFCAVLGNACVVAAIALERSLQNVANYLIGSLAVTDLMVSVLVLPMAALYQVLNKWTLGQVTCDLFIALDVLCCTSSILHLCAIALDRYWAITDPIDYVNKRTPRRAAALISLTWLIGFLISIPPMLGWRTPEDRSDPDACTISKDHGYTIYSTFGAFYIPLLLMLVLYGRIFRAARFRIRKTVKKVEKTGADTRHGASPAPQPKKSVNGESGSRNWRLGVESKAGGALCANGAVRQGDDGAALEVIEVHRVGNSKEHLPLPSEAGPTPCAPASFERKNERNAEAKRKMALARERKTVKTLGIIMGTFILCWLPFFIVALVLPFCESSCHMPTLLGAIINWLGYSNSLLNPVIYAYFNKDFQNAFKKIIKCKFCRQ

[16] = target: T6, M3 receptor (Cavia porcellus, UniProt H0W1Z3); test: Carbachol-induced contraction of the isolated Guinea pig ileum; conditions: reference antagonist
T6 construct: from tissue; host or cells: isolated guinea pig ileum

[17] = 30 mg/kg p.o. 60 min before the test
[18] = 128 mg/kg p.o. 60 min before the test

T4 sequence (Q63380 1-617): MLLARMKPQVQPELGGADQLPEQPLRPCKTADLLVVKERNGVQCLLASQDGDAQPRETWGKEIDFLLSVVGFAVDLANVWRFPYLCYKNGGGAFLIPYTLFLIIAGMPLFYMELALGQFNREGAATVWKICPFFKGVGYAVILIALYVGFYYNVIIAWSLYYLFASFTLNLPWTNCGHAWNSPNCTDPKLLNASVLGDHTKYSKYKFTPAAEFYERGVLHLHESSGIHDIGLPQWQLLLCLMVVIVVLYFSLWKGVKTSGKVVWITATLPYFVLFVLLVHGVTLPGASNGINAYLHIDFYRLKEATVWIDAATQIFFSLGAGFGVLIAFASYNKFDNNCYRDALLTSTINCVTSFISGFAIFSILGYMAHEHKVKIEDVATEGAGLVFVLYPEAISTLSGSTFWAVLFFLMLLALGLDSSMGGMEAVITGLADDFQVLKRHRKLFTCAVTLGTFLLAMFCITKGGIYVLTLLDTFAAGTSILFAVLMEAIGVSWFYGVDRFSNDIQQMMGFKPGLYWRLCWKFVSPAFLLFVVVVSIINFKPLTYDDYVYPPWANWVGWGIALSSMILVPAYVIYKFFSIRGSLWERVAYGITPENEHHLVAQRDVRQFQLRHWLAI
Chain of Dopamine (DA) uptake (P23977 whole entry): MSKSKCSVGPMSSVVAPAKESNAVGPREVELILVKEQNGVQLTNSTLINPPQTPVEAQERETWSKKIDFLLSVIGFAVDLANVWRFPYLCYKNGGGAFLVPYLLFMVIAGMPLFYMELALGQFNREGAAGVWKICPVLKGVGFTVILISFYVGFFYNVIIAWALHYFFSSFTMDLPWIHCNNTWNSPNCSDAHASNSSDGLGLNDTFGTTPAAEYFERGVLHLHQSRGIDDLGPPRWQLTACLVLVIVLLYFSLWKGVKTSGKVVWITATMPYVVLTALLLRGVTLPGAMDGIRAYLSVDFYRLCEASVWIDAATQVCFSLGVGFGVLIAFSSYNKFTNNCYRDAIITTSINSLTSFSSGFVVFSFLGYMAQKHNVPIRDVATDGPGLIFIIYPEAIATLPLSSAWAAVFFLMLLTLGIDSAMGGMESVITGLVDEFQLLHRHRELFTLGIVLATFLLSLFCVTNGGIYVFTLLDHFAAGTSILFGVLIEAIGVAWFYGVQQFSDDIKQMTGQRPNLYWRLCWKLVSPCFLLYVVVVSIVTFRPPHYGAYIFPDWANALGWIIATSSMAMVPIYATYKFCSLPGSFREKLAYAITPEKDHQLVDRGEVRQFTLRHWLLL
T6 sequence (H0W1Z3 1-590): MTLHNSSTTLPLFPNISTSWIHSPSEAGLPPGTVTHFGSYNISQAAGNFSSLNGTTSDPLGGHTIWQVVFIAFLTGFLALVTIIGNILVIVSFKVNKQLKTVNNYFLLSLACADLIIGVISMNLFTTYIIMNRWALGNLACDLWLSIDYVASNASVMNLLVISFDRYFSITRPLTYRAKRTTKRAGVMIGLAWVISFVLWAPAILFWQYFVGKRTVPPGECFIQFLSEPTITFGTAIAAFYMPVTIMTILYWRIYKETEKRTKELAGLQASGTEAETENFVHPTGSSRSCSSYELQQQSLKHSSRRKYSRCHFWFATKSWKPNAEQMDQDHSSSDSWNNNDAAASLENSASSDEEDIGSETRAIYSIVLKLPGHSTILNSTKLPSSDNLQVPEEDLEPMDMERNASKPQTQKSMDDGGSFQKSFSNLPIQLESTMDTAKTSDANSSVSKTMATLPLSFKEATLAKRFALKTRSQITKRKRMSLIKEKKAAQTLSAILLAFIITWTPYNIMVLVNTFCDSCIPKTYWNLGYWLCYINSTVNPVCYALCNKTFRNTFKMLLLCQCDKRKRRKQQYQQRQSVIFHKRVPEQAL
Chain of B2 (P30411 whole entry): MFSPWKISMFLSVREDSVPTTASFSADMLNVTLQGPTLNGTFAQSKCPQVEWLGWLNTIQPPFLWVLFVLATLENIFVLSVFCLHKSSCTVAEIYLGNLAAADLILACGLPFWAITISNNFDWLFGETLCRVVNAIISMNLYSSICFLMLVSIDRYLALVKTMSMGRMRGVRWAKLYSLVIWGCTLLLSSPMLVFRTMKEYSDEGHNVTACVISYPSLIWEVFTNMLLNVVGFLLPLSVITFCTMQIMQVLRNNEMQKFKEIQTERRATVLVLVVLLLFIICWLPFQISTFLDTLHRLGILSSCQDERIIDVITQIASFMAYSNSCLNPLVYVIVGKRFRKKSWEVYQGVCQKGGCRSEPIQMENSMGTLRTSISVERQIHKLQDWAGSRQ
Chain of 5-HT1B (P28222 whole entry, species assumed): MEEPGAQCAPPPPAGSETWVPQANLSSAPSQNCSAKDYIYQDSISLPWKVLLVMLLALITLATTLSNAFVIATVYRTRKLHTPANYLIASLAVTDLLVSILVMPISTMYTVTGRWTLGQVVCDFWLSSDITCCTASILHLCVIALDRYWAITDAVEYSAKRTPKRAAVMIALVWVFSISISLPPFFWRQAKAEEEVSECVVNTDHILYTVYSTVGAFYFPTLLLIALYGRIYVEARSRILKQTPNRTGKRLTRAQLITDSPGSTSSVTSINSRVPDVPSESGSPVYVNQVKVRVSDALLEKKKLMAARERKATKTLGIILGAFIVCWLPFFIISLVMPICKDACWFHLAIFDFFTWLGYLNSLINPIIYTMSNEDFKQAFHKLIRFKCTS
Chain of H2 (P25021 whole entry): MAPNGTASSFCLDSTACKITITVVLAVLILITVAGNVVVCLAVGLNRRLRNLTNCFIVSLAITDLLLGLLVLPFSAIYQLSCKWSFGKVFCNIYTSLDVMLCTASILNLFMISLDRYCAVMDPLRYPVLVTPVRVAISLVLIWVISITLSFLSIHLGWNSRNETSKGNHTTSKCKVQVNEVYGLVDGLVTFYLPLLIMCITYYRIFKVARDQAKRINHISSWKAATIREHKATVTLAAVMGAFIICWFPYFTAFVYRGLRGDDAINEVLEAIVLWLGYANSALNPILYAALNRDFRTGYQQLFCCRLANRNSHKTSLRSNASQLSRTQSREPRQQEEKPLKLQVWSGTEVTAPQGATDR
T3 sequence (Q01959 whole entry): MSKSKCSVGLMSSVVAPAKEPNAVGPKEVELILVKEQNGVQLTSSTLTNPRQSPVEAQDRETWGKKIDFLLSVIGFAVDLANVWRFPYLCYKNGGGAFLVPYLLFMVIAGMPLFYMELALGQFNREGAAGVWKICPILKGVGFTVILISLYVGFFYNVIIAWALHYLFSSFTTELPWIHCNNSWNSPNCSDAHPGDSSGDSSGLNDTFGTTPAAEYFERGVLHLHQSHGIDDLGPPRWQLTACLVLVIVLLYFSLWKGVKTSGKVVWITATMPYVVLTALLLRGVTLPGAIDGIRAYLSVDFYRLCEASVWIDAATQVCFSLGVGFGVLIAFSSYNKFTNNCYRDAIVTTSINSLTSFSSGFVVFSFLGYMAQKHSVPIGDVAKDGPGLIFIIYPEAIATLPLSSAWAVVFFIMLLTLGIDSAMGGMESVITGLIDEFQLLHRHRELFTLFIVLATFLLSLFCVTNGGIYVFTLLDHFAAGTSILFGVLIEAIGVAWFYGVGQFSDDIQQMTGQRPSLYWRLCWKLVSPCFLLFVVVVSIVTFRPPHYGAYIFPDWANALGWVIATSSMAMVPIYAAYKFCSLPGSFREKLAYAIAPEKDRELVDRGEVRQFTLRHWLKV
T2 sequence (P23975 whole entry): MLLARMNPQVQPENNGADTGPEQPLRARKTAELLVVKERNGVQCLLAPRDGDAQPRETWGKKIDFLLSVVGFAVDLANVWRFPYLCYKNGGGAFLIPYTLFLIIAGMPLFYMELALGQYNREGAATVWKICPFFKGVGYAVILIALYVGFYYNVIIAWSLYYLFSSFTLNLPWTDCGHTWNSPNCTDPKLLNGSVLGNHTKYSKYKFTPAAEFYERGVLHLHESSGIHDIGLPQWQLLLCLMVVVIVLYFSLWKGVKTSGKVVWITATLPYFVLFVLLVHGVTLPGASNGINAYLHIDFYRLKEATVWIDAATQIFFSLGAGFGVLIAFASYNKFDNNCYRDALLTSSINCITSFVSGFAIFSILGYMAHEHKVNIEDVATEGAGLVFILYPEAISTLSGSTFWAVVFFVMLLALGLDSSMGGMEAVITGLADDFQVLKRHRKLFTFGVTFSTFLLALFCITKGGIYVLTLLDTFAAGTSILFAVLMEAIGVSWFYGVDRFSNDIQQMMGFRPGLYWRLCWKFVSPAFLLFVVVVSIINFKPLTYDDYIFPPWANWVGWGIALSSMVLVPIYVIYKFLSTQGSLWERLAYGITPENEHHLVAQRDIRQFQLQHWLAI

COc1ccc(C(CN(C)C)C2(O)CCCCC2)cc1 (stereo not shown) [Venlafaxine]
Ki [1]: 12000 nM
Ki [2]: > 100000 nM
Ki [3]: 4800 nM
Ki [4]: 89000 nM

N[C@H]1CC[C@H](c2ccc(Cl)c(Cl)c2)c2ccccc21 [Compound Q, (1S,4R)-trans 4-(3,4-dichlorophenyl)-1,2,3,4-tetrahydro-1-napthalenamine]
IC50 [5]: 16.5 nM
IC50 [6]: 14.4 nM
IC50 [7]: 35 nM
IC50 [8]: 19 nM

N[C@@H]1CC[C@@H](c2ccc(Cl)c(Cl)c2)c2ccccc21 (racemic) [1:1 mixture of Compounds P & Q, trans-4-(3,4-dichlorophenyl)-1,2,3,4-tetrahydro-1-napthalenamine]
IC50 [7]: 8.8 nM
IC50 [8]: 7.1 nM

CNCCCN1c2ccccc2CCc2ccccc21 [Desipramine]
Ki [1]: 910 nM
Ki ([2]; read-out: Ki, M5): 470 nM
Ki [3]: 310 nM
Ki [9]: 2700 nM

CNCC[C@H](Oc1cccc2ccccc12)c1cccs1 [Duloxetine, reference compound]
Mechanical Allodynia, Paw Withdrawal Threshold (Mean ± SEM) ([10]; 30 mg/kg PO, 0 h (Baseline)): 2.6 ± 0.2 g
Mechanical Allodynia, Paw Withdrawal Threshold (Mean ± SEM) ([10]; 30 mg/kg PO, 1 h): 7.0 ± 0.5 g
Mechanical Allodynia, Paw Withdrawal Threshold (Mean ± SEM) ([10]; 30 mg/kg PO, 2 h): 7.9 ± 0.6 g
Mechanical Allodynia, Paw Withdrawal Threshold (Mean ± SEM) ([10]; 30 mg/kg PO, 4 h): 8.1 ± 0.6 g
NUMBER OF FLINCHES (20 to 35 min after formalin), mean ± s.e.m. [11, 17]: 71.4 ± 17.2NS
NUMBER OF FLINCHES, % change from control [11, 17]: −20%
Mechanical Hyperalgesia, Paw Pressure Threshold (Mean ± SEM) ([12]; 30 mg/kg PO, 0 h (Baseline)): 153 ± 9 g
Mechanical Hyperalgesia, Paw Pressure Threshold (Mean ± SEM) ([12]; 30 mg/kg PO, 1 h): 306 ± 30 g
Mechanical Hyperalgesia, Paw Pressure Threshold (Mean ± SEM) ([12]; 30 mg/kg PO, 2 h): 345 ± 22 g
Mechanical Hyperalgesia, Paw Pressure Threshold (Mean ± SEM) ([12]; 30 mg/kg PO, 4 h): 330 ± 25 g
Number of Flinches, Acute Phase (Mean ± SEM) ([13]; 30 mg/kg PO): 168 ± 24
Number of Flinches, Late Phase (Mean ± SEM) ([13]; 30 mg/kg PO): 803 ± 112

CN(C)CCCC1(c2ccc(F)cc2)OCc2cc(C#N)ccc21 (stereo not shown) [Citalopram]
Ki [14]: > 100000 nM
Ki [15]: 15000 nM
Ki ([2]; read-out: Ki, M5): 29000 nM
IC50 [7]: 7900 nM

CC(NC(C)(C)C)C(=O)c1cccc(Cl)c1 (stereo not shown) [Bupropion, reference compound]
IC50 [7]: 611 nM
IC50 [8]: 294 nM

C[N+]1(C)CCC(OC(=O)C(c2ccccc2)c2ccccc2)CC1.[I-] [Compound 4-DAMP, 4-DAMP, reference compound]
pA2 [16]: pA2 = 9.2
IC50 ([16]; read-out: IC50 for inhibition of carbachol-induced contraction of the Guinea Pig ileum): 33 nM

NCC1(CC(=O)O)CCCCC1 [Gabapentin, reference compound]
Mechanical Allodynia, Paw Withdrawal Threshold (Mean ± SEM) ([10]; 100 mg/kg PO, 0 h (Baseline)): 2.7 ± 0.1 g
Mechanical Allodynia, Paw Withdrawal Threshold (Mean ± SEM) ([10]; 100 mg/kg PO, 1 h): 6.6 ± 0.4 g
Mechanical Allodynia, Paw Withdrawal Threshold (Mean ± SEM) ([10]; 100 mg/kg PO, 2 h): 9.8 ± 0.5 g
Mechanical Allodynia, Paw Withdrawal Threshold (Mean ± SEM) ([10]; 100 mg/kg PO, 4 h): 6.2 ± 0.4 g
Mechanical Hyperalgesia, Paw Pressure Threshold (Mean ± SEM) ([12]; 100 mg/kg PO, 0 h (Baseline)): 135 ± 20 g
Mechanical Hyperalgesia, Paw Pressure Threshold (Mean ± SEM) ([12]; 100 mg/kg PO, 1 h): 219 ± 32 g
Mechanical Hyperalgesia, Paw Pressure Threshold (Mean ± SEM) ([12]; 100 mg/kg PO, 2 h): 236 ± 29 g
Mechanical Hyperalgesia, Paw Pressure Threshold (Mean ± SEM) ([12]; 100 mg/kg PO, 4 h): 255 ± 29 g

CN1CC[C@]23c4c5ccc(O)c4O[C@H]2[C@@H](O)C=C[C@H]3[C@H]1C5 [Morphine, reference compound]
NUMBER OF FLINCHES (20 to 35 min after formalin), mean ± s.e.m. [11, 18]: 0.0 ± 0.0
NUMBER OF FLINCHES, % change from control [11, 18]: −100%
Number of Flinches, Acute Phase (Mean ± SEM) ([13]; 100 mg/kg SC): 36 ± 9
Number of Flinches, Late Phase (Mean ± SEM) ([13]; 100 mg/kg SC): 32 ± 13

From US20070282007A1, “TREATMENT OF PAIN DISORDERS WITH trans 4-(3,4-DICHLOROPHENYL)-1,2,3,4-TETRAHYDRO-1-NAPHTHALENAMINE AND ITS FORMAMIDE” (SEPRACOR INC., priority 2006, published 2007)
